Data: EP0134922A1, “2-Piperazino-pteridines, processes for their preparation and medicaments containing these compounds” (Dr. Karl Thomae GmbH, priority 1983, dated 1985)
Like-named read-outs stand apart in the source and are kept apart here.

Experiments:
Mäusen = experiment: Orienting acute toxicity after a single oral dose; conditions: in vivo, po, 250 mg/kg
Source text: (§1) Die orientierende akute Toxizität der zu untersuchenden Substanzen wurde orientierend an Gruppen von je 5 Mäusen nach oraler Gabe einer Einzeldosis bestimmt (Beobachtungszeit: 14 Tage): […]

[1] = Orienting acute toxicity after a single oral dose; conditions: mouse, in vivo, read-out: Orientierende aktute Toxizität
Source text: as §1

[2] = mice, groups of 5, oral single dose, observation time 14 days

Compound	Tieren gestorben (Mäusen)	LD50 at 336 h [1, 2]	LD50 at 336 h ([1]; po)
CN(C)c1nc2nc(N3CCNCC3)nc(N(C)C)c2nc1SCc1ccccc1 [Substanz C, 6-Benzylthio-4,7-bis-(dimethylamino)-2-piperazino-pteridin]	0 von 5	> 250 mg/kg	–
CN(C)c1nc2nc(N3CCNCC3)nc(N(C)C)c2nc1Cl [Substanz B, 6-Chlor-4,7-bis-(dimethylamino)-2-piperazino-pteridin]	0 von 5	–	> 250 mg/kg
CSc1nc2c(N3CC[S+]([O-])CC3)nc(N3CCNCC3)nc2nc1NCc1ccccc1 [Substanz D, 7-Benzylamino-6-methylthio-4-(1-oxidothiomorpholino)-2-piperazino-pteridin]	0 von 5	> 250 mg/kg	–
CN(C)c1nc(N2CCNCC2)nc2nc(NCc3ccccc3)c(Cl)nc12 [Substanz E, 6-Chlor-2-piperazino-4-dimethyl-amino-7-benzylamino-pteridin]	0 von 5	–	> 250 mg/kg
c1ccc(CSc2nc3c(N4CCOCC4)nc(N4CCNCC4)nc3nc2N2CCOCC2)cc1 [Substanz A, 6-Benzylthio-4,7-dimorpholino-2-piperazino-pteridin]	0 von 5	> 250 mg/kg	–
